One may read the CC50 as the concentration giving 50% cytotoxicity.

Molecules are shown by their SMILES.

Data set [1] relates to SARS-CoV-2. The experiment in a line: Virus-induced cytopathic effect (CPE) viewed under a microscope. As to conditions: 48 h post-inoculation; 10 μM RDV, 30 μM cholesterol, 30 μM 7-KC, 10 μM Oxy133, 10 μM Oxy210. Format: cell-based, SARS-CoV-2 Wk-521 strain. For orientation: Protection from cytopathic effect is a common read-out in antiviral testing.
Data set [2] relates to SARS-CoV-2. The data set can be described thus: SARS-CoV-2 infection assay, viral RNA in culture supernatant by real-time RT-PCR. Format: cell-based, SARS-CoV-2 Wk-521 strain. As to conditions: viral RNA in culture supernatant, 24 h post-inoculation, VeroE6/TMPRSS2 cells.
A short description of data set [3]: Cell viability by MTT assay. To be noted: African green monkey, VeroE6 cells stably overexpressing TMPRSS2. (Tetrazolium assays rely on reduction of a dye to a coloured formazan, in cell work by metabolically active cells.)
In data set [4] the test system is SARS-CoV-2. The experiment in a line: Time of addition assay (whole life cycle, entry, post-entry). Format: cell-based, SARS-CoV-2 Wk-521 strain. As to conditions: 15 μM RDV, 10 μM Oxy210, 10 μM Oxy133; added 2 h post-inoculation for 21 h.
For data set [5], the system named is SARS-CoV-2. The experiment in a line: Viral N protein by indirect immunofluorescence. Format: cell-based, SARS-CoV-2 Wk-521 strain. To be noted: 10 μM RDV, 30 μM cholesterol, 30 μM 7-KC, 10 μM Oxy133, 10 μM Oxy210.

Consider `CCC(CC)COC(=O)[C@H](C)N[P@](=O)(OC[C@H]1O[C@@](C#N)(c2ccc3c(N)ncnn23)[C@H](O)[C@@H]1O)Oc1ccccc1` [RDV, remdesivir, reference compound], for which the “effect on SARS-CoV-2-induced CPE (in words)” value with SARS-CoV-2 [1] is “blocked the virus-induced CPE”. Also, in the data set on SARS-CoV-2 [2] (Severe acute respiratory syndrome coronavirus 2, read-out: IC90 (90% maximal inhibitory concentration)), the IC90 stood at 2.5 µM. Besides, the IC50 in the data set with SARS-CoV-2 [2] (Severe acute respiratory syndrome coronavirus 2, read-out: IC50 (50% maximal inhibitory concentration)) was determined as 1.5 µM. Besides, the CC50 at 24 h in data set [3] is above 10 µM. Further, the “viral RNA, compound present post-entry (in words)” value in the data set on SARS-CoV-2 [4] is recorded as “remarkable inhibition”. The “effect on virus propagation / spread of infection, N protein (in words)” value in the data set on SARS-CoV-2 [5] was “blocked”.

Source of the values: PMC8003796, “Identification of Anti-Severe Acute Respiratory Syndrome-Related Coronavirus 2 (SARS-CoV-2) Oxysterol Derivatives In Vitro” (International Journal of Molecular Sciences, 2021).
